Data on eleven molecules can be found in US9656994B2, “Substituted benzimidazoles as nociceptin receptor modulators” (The Scripps Research Institute, priority 2013, dated 2017).

Molecules are shown by their SMILES. Read-outs that look alike come from different tables or passages of the source.

For data set [1], the target named is T1, MOP (Homo sapiens, UniProt P35372). In words: cAMP biosensor assay, MOP agonist mode. It counts as cell-based.
For data set [2], the target named is T1, MOP. In words: cAMP biosensor assay, MOP antagonist mode. Type of data set: cell-based.
Data set [3] deals with T2, NOP (Homo sapiens, UniProt P41146). In words: cAMP biosensor assay, NOP agonist mode. It counts as cell-based.
T2 sequence (P41146 whole entry): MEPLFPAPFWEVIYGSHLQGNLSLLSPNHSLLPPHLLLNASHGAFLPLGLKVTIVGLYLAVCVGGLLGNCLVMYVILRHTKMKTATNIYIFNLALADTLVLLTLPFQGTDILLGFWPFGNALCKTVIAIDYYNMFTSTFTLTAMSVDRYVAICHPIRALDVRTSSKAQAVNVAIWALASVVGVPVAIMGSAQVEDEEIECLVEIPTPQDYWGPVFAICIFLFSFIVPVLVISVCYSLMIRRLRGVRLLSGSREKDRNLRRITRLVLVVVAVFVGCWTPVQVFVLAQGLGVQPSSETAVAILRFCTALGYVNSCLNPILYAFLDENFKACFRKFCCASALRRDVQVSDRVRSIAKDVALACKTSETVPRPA
Data set [4] deals with T2, NOP. In words: cAMP biosensor assay, NOP antagonist mode. Type of data set: cell-based.
Data set [5] is described as follows: blood-brain barrier penetration. The settings on record: in vivo.
In data set [6] the test system is selected cytochrome P450 enzymes. The data set can be described thus: affinity for selected cytochrome P450 enzymes.
The mark [7] stands for this setting: HEK293-CNG cells expressing NOP, agonist mode, 11 point concentration-response, read-out: NOP Agonist EC50.
Where [8] appears, read: HEK293-CNG cells expressing NOP, antagonist mode with 5 nM nociceptin, read-out: NOP Antagonist IC50.

T1 sequence (P35372 whole entry): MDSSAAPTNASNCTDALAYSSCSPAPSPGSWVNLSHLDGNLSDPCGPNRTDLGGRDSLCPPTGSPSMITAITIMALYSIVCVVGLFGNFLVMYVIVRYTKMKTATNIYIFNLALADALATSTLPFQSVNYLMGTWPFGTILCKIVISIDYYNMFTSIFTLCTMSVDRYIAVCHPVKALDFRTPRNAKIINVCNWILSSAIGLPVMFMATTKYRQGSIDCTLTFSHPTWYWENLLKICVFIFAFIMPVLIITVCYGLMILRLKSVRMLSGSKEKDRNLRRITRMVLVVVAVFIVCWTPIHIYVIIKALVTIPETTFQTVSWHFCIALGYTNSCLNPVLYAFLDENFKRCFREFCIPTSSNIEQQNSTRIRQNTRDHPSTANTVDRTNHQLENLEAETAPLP

One may read the EC50 as the concentration that produces a half-maximal response. The IC50 is the concentration that inhibits the measured activity by half. `c1ccc(CN2CCC(n3c([C@@H]4CCNC4)nc4ccccc43)CC2)cc1` [Cpd 59]: the half-maximal effective concentration (EC50) in data set [1] was determined as 0.27 µM; in data set [3] (setting [7]) it was 0.37 µM. In addition, the IC50 in data set [2] and in data set [4] (setting [8]) was above 10 µM in each case.
As to `O[C@H]1CN[C@H](c2nc3ccccc3n2C2CCN(CC3CCCCCCC3)CC2)C1` [Cpd 18], the EC50 in data set [1] came out at 0.57 µM; in data set [3], 1.4 µM. For the same molecule, 7.8 µM corresponded to half-maximal inhibition in data set [4] (IC50).
Take `CS(=O)(=O)c1ccc2c(c1)nc([C@@H]1CCNC1)n2C1CCN(CC2CCCCCCC2)CC1` [Cpd 44]: the IC50 in data set [2] and in data set [4] (setting [8]) was above 10 µM in each case. For the same molecule, the concentration giving a half-maximal response (EC50) in data set [3] (setting [7]) is 3.3 µM.
As to `CC1(C)[C@H]2CC=C(CN3CCC(n4c([C@@H]5CCCNC5)nc5ccccc54)CC3)[C@@H]1C2` [Cpd 58], the concentration for half-maximal inhibition (IC50) in data set [2] and in data set [4] (setting [8]) was above 10 µM throughout. Besides, the EC50 in data set [3] (setting [7]) turned out to be 1.6 µM.
Turning to `CC1=C(CN2CCC(n3c(C4CNC4)nc4cc(F)ccc43)CC2)C(C)(C)CCC1` [Cpd 53], the IC50 in data set [2] and in data set [4] (setting [8]) was above 10 µM throughout. Also, in data set [3] (setting [7]), the concentration giving a half-maximal response (EC50) stood at 0.21 µM.
With `C1=CC2CC1CC2CN1CCC(n2c(C3CNC3)nc3ccccc32)CC1` (stereo not shown) [Cpd 47], the EC50 in data set [1] worked out at 0.3 µM; in data set [3] (setting [7]), 0.31 µM. For the same molecule, the concentration for half-maximal inhibition (IC50) in data set [2] and in data set [4] (setting [8]) was above 10 µM in each case.
In the case of `c1ccc2c(c1)nc(C1CNC1)n2C1CCN(CC2CCCCC2)CC1` [Cpd 55], the IC50 in data set [2] and in data set [4] (setting [8]) was above 10 µM throughout. The EC50 in data set [3] (setting [7]) is 0.14 µM.
In the case of `Fc1ccc2c(c1)nc([C@@H]1CCCNC1)n2C1CCN(CC2CCCCCCC2)CC1` [Cpd 30], the EC50 in data set [1] turned out to be 0.23 µM; in data set [3] (setting [7]) it was 0.15 µM. Moreover, the values for the IC50 in data set [2] and in data set [4] (setting [8]) were 3 µM and 3.9 µM, respectively.
On to `c1ccc2c(c1)nc(C1CCNCC1)n2C1CCN(CC2CCCCCCC2)CC1` [Cpd 10], for which the EC50 in data set [1] was found to be 0.4 µM; in data set [3] (setting [7]) it was 3.5 µM. The IC50 in data set [2] and in data set [4] (setting [8]) was above 10 µM in each case.
Take `Cc1ccc2c(c1)nc([C@@H]1CCNC1)n2C1CCN(CC2CCCCCCC2)CC1` [Cpd 41]: the concentration giving a half-maximal response (EC50) turned out to be 5.9 µM in data set [1] and 6.3 µM in data set [3] (setting [7]). Moreover, the results for the concentration for half-maximal inhibition (IC50) in data set [2] and in data set [4] (setting [8]) were above 100 µM and above 10 µM, respectively.
For the molecule `c1ccc2c(c1)nc([C@@H]1CCNC1)n2C1CCN(CC2CCCCCCC2)CC1` [Cpd 11], the blood-brain barrier penetration in data set [5] worked out at 44%. The “affinity for selected cytochrome P450 enzymes” value in data set [6] is “low affinity”.
